Measurements as given in article PMC9388731, “Radiosynthesis and First Preclinical Evaluation of the Novel ^11C-Labeled FAP Inhibitor ^11C-FAPI: A Comparative Study of ^11C-FAPIs and (^68Ga) Ga-DOTA-FAPI-04 in a High–FAP-Expression Mouse Model” (Frontiers in Chemistry, 2022).
Where “and” joins values, the source holds several entries; their conditions need not be identical. Equal entries are not always repeated.

Tests used:
U87MG tumor xenografts = test: Biodistribution (ex vivo γ-counting of organs) in U87MG tumor xenograft mice; set-up: species or system nude mice (female BALB/c nu/nu); conditions: for Tumor uptake: i.v., mean ± SD, n = 3
Experimental: (§1) All animal experimental procedures and protocols were approved by the Institutional Animal Care and Use Committee (Renji Hospital, School of Medicine, Shanghai Jiao Tong University). For subcutaneous models, U87MG cells (2 × 10^6 cells in 100 μl PBS) were implanted into the right flank of female BALB/c nu/nu athymic mice to establish subcutaneous tumor xenografts. For orthotopic xenografts, U87MG cells (0.5 × 10^6 cells in […] PBS) were transplanted into the brains of female BALB/c nude mice (4–6 weeks old). The subcutaneous and orthotopic models were ready for PET imaging 3 weeks after tumor cell inoculation.
U87MG mice were injected with 3.7 MBq of each tracer and sacrificed at different times (30, 60, and 90 min p.i.; n = 3 for each time point). The main organs, including the kidney, intestine, liver, heart, lung, muscle, brain, and tumors, were isolated, weighed, and analyzed. The biodistribution in the [^68Ga] Ga-DOTA-FAPI-04 group (3.7 MBq) with approximately 100 μg of unlabeled DOTA-FAPI-04 was also evaluated for comparison. The radioactivity of the samples was determined using an automated γ-counter (Perkin-Elmer), and the uptake of the radiotracers in different organs/tissues was calculated and presented as percent of injected dose per Gram of tissue (%ID/g, mean ± SD).

[1] = In vitro stability in PBS at 37°C (radio-HPLC); type: physicochemical; conditions: 150 min
Experimental: The radiochemical purities were analyzed by a radio-HPLC column (C18-B, 250 mm × 4.6 mm, 5 μm, 120 Å, Morhchem Technologies Inc., United States) (details presented in the Supplementary Material).

[2] = tested on: U87MG orthotopic xenograft glioma; test: Small-animal PET in the U87MG orthotopic xenograft glioma model; type: in vivo, nude mice (female BALB/c); conditions: 60 min p.i., n = 3
Experimental: as §1
Ga-DOTA-FAPI-04 were diluted or concentrated to a 74 MBq/mL. […] Ga-DOTA-FAPI-04 was intravenously injected into U87MG tumor-bearing nude mice (n = 3 for each group). For static PET imaging, the acquisition times were 30, 60, and 90 min postinjection (p.i.). Each static scan consists of CT scan and PET scan. The CT scan time is 20 s and the PET scan time is 10 min. […] Regions of interest (ROIs) in the tumor, liver, heart, kidney, brain, and lung were counted on the PET images to quantify the radioactive signals. […] PET data were reconstructed with three-dimensional ordered-subset expectation-maximization (3D-OSEM) algorithm with Monte-Carlo based accurate detector model and subsequently was analyzed with Avatar 1.2 software (Pingseng China).

FAP = tested on: FAP; set-up: method as in PMID 32222810; conditions: ref (3); cited from earlier work
[3] = 60 min p.i. (time taken from the order of the sentence)
[4] = 90 min p.i. (time taken from the order of the sentence)
[5] = time printed as 'at 60 and 90 min p.i.', one value per probe

Compound	Brain uptake (U87MG tumor xenografts; 30 min p.i.)	Heart uptake (U87MG tumor xenografts; 30 min p.i.)	Intestine uptake (U87MG tumor xenografts; 30 min p.i.)	Kidney uptake (U87MG tumor xenografts; 30 min p.i.)	Liver uptake (U87MG tumor xenografts; 30 min p.i.)	Lung uptake (U87MG tumor xenografts; 30 min p.i.)	Muscle uptake (U87MG tumor xenografts; 30 min p.i.)	T/L ratio (tumor/liver) (U87MG tumor xenografts; 30 min p.i.)	tumor-to-muscle (T/M) ratio (U87MG tumor xenografts; 30 min p.i.)	Tumor uptake (U87MG tumor xenografts; 30 min p.i.)	Brain uptake (U87MG tumor xenografts; 60 min p.i.)	Heart uptake (U87MG tumor xenografts; 60 min p.i.)	Intestine uptake (U87MG tumor xenografts; 60 min p.i.)	Kidney uptake (U87MG tumor xenografts; 60 min p.i.)	Liver uptake (U87MG tumor xenografts; 60 min p.i.)	Lung uptake (U87MG tumor xenografts; 60 min p.i.)	Muscle uptake (U87MG tumor xenografts; 60 min p.i.)	T/L ratio (tumor/liver) (U87MG tumor xenografts; 60 min p.i.)	tumor-to-muscle (T/M) ratio (U87MG tumor xenografts; 60 min p.i.)	T/K ratio (tumor/kidney) (U87MG tumor xenografts; [3])	also measured
COc1ccc2nccc(C(=O)NCC(=O)N3CCC[C@H]3C#N)c2c1 [^11C-RJ1101, (S)-N-(2-(2-cyanopyrrolidin-1-yl)-2-oxoethyl)-6-(methoxy-11C)quinoline-4-carboxamide]	0.18 ± 0.02 %ID/g	0.59 ± 0.01 %ID/g	4.95 ± 0.31 %ID/g	1.28 ± 0.06 %ID/g	7.20 ± 1.71 %ID/g	0.56 ± 0.08 %ID/g	0.42 ± 0.04 %ID/g	0.19 ± 0.03	3.19 ± 0.06	1.34 ± 0.10 %ID/g	0.02 ± 0.00 %ID/g	0.06 ± 0.01 %ID/g	2.72 ± 0.45 %ID/g	0.17 ± 0.02 %ID/g	0.24 ± 0.03 %ID/g	0.05 ± 0.01 %ID/g	0.06 ± 0.01 %ID/g	0.63 ± 0.04	2.26 ± 0.25	0.89 ± 0.05	Tumor uptake (U87MG tumor xenografts; 60 min p.i.): 0.15 ± 0.01 %ID/g; Heart uptake (U87MG tumor xenografts; 90 min p.i.): 0.01 ± 0.00 %ID/g; Intestine uptake (U87MG tumor xenografts; 90 min p.i.): 0.67 ± 0.02 %ID/g; Kidney uptake (U87MG tumor xenografts; 90 min p.i.): 0.03 ± 0.00 %ID/g; Liver uptake (U87MG tumor xenografts; 90 min p.i.): 0.06 ± 0.00 %ID/g; Lung uptake (U87MG tumor xenografts; 90 min p.i.): 0.01 ± 0.00 %ID/g; Muscle uptake (U87MG tumor xenografts; 90 min p.i.): 0.01 ± 0.00 %ID/g; T/L ratio (tumor/liver) (U87MG tumor xenografts; 90 min p.i.): 0.34 ± 0.06; tumor-to-muscle (T/M) ratio (U87MG tumor xenografts; 90 min p.i.): 2.00 ± 0.00; T/K ratio (tumor/kidney) (U87MG tumor xenografts; [4]): 0.67 ± 0.01; Tumor uptake (U87MG tumor xenografts; 90 min p.i.): 0.02 ± 0.00 %ID/g; T/K ratio (tumor/kidney) (U87MG tumor xenografts; [5]): 1.05 ± 0.03; radioactive purity after incubation in PBS (in vitro stability) [1]: over 99%
[11CH3]Oc1ccc2nccc(C(=O)NCC(=O)N3CC(F)(F)C[C@H]3C#N)c2c1 [^11C-RJ1102, (S)-N-(2-(2-cyano-4,4-difluoropyrrolidin-1-yl)-2-oxoethyl)-6-(methoxy-11C) quinoline-4-carboxamide]	0.16 ± 0.01 %ID/g	0.78 ± 0.10 %ID/g	5.08 ± 0.24 %ID/g	1.84 ± 0.01 %ID/g	2.87 ± 0.12 %ID/g	0.65 ± 0.02 %ID/g	0.74 ± 0.03 %ID/g	0.60 ± 0.03	2.30 ± 0.32 and 2.30 ± 0.02	1.71 ± 0.08 %ID/g	0.07 ± 0.03 %ID/g	0.26 ± 0.01 %ID/g	2.63 ± 0.28 %ID/g	0.48 ± 0.02 %ID/g	1.00 ± 0.05 %ID/g	0.25 ± 0.03 %ID/g	0.20 ± 0.01 %ID/g	0.62 ± 0.03	3.10 ± 0.14	1.29 ± 0.07	Tumor uptake (U87MG tumor xenografts; 60 min p.i.): 0.62 ± 0.06 %ID/g; Brain uptake (U87MG tumor xenografts; 90 min p.i.): 0.02 ± 0.01 %ID/g; Heart uptake (U87MG tumor xenografts; 90 min p.i.): 0.07 ± 0.01 %ID/g; Intestine uptake (U87MG tumor xenografts; 90 min p.i.): 1.10 ± 0.25 %ID/g; Kidney uptake (U87MG tumor xenografts; 90 min p.i.): 0.13 ± 0.02 %ID/g; Liver uptake (U87MG tumor xenografts; 90 min p.i.): 0.29 ± 0.02 %ID/g; Lung uptake (U87MG tumor xenografts; 90 min p.i.): 0.06 ± 0.01 %ID/g; Muscle uptake (U87MG tumor xenografts; 90 min p.i.): 0.04 ± 0.00 %ID/g; T/L ratio (tumor/liver) (U87MG tumor xenografts; 90 min p.i.): 0.62 ± 0.03; tumor-to-muscle (T/M) ratio (U87MG tumor xenografts; 90 min p.i.): 4.50 ± 0.50; T/K ratio (tumor/kidney) (U87MG tumor xenografts; [4]): 1.39 ± 0.06; Tumor uptake (U87MG tumor xenografts; 90 min p.i.): 0.18 ± 0.02 %ID/g; T/K ratio (tumor/kidney) (U87MG tumor xenografts; [5]): 0.93 ± 0.04; tumor accumulation (small-animal PET) [2]: 0.22 ± 0.02 ID%/g; radioactive purity after incubation in PBS (in vitro stability) [1]: over 99%
COc1ccc2nccc(C(=O)NCC(=O)N3CC(F)(F)C[C@H]3C#N)c2c1 [compound 4, (S)-N-(2-(2-cyano-4,4-difluoropyrrolidin-1-yl)-2-oxoethyl)-6-(methoxy)quinoline-4-carboxamide]	–	–	–	–	–	–	–	–	–	–	–	–	–	–	–	–	–	–	–	–	IC50 (FAP): 8.5 ± 0.9 nM
